Results on one compound are retold here after patent publication US20150203924A1, “[…] FOR HERBICIDE RESISTANCE IN PLANTS” (PURDUE RESEARCH FOUNDATION, priority 2013, published 2015).

For series [1], the system named is Ambrosia trifida L. (Giant ragweed). The series is described as follows: Foliar glyphosate treatment of whole plants: fresh weight and visual injury. The class given is in vivo. The source says: Significance (<0.05) between populations (within rates) is indicated by letters (a, b). […] Significance (<0.05) between rates (within populations) is indicated by letters (a, b, c).
Foliar application of herbicide solution was applied using a compressed-air bench top track sprayer at a pressure of 249 kPa and a volume of 187 L of spray solution ha-1. […] All plants were at the third node growth stage at the time of treatment.

Series [2] has the same test system. Nature of the series: Tissue specific (differential exposure) glyphosate treatment, translocation. To be noted: uncovered portions sprayed with 0.7 kg ae/ha.
The test system is the same in series [3]. The series is described as follows: Chlorophyll fluorescence measurements / rapid necrosis of mature leaves after glyphosate treatment. The class given is in vivo. To be noted: 1x field rate glyphosate. On the procedure:
To quantify early physiological reactions related to this resistance mechanism, a method was developed using chlorophyll fluorescence measurements to determine photosynthetic activity. […] Treatments at each time point consisted of glyphosate-resistant and glyphosate-sensitive A. trifida untreated and treated leaves.
In an embodiment, to measure fluorescence the maximum quantum efficiency of photosystem II (Fv/Fm) is determined using an Imaging-PAM fluorometer IMAG-MAX/GS with a mounted LED-Array Illumination Unit IMAG-MAX/L and CCD-Camera (Heinz Walz GmbH, 91090 Effeltrich, Germany) along with ImagingWin software. Briefly, dark acclimated plants are exposed to a short saturating light pulse to maximally reduce the QA pool and where fluorescence is increased to maximum values (Fm) and this is followed by a weak non-actinic modulated measuring light to determine the minimal level of fluorescence (F0) (Oxborough, 2004).

Series [4] shares this test system. Nature of the series: 31P NMR imaging of glyphosate infiltrated leaves. The class given is in vivo.
The subject of a further series is EPSPS. The series is described as follows: EPSPS sensitivity to glyphosate challenge. The class given is biochemical, Ambrosia trifida.
Series [5] has as its system Ambrosia trifida L. (Giant ragweed). Nature of the series: H2O2 accumulation in glyphosate treated leaves by DAB staining. The class given is in vivo. As to the method: In an embodiment, the H2O2 presence is visually detected after 3,3′-diaminobenzidine (DAB) staining using procedures described by Thordal-Christensen et al., ([…]). […] At each harvested time, leaf discs are floated in a solution of DAB-Hydrochloric acid (HCl) (1 mg/ml) (Sigma, St. Louis, Mo.) in a beaker at room temperature and allowed to absorb the solution through the cut ends. After 3 hours of incubation, leaf discs are decolorized by boiling in 90% ethanol for ten minutes to remove chlorophyll, before visual examination. Brown precipitates form at sites of H2O2 accumulation and data collected will be by visual detection of H2O2 accumulation as noted by intensity of brown precipitates on treated leave discs. The hypersensitive reaction (HR) has been used as a visual marker of biotic interactions and induction of pathogen response (PR) genes (S) but this has been also shown in plant responses to abiotic stresses such as excess excitation energy (EEE) (Muhlenbock et al., 2008).

Series [6] shares this test system. Nature of the series: 14C-glyphosate uptake and translocation. The class given is in vivo. The following applies: two mature leaves treated with 14C-glyphosate. The source says:
In the study, the treated leaf included two mature leaves treated with ^14C-glyphosate. Mobilized distribution includes untreated mature leaves, meristems and roots.

[7] abbreviates: three weeks after treatment, 1x glyphosate field rate.

A value given as a limit tells only on which side of the number the result lay.

Consider `O=C(O)CNCP(=O)(O)O` [glyphosate, N-(phosphonomethyl)glycine], for which the “visual plant injury of resistant plants compared to sensitive plants” value in series [1] (1x, 2x, 4x treatment levels, after twenty-one days) is “decreased visual injury compared to the sensitive plants”. Besides, in series [1] (3 weeks after treatment, n=63), the “visual injury rating (% dead), resistant plants compared to sensitive plants” value was “much lower rating of % dead compared to the sensitive plants”. Also, in series [1] (setting [7]), the “plant response, glyphosate-resistant plant” value is listed as “recovered from the glyphosate treatment” and the “plant response, glyphosate-sensitive plant” value is recorded as “extremely decline”. Besides, the “fresh weight of resistant plants compared to sensitive plants” value in series [1] (whole plant tissue 21 days after treatment, 1x=0.7, 2x=1.4, 4x=2.8 kg ae ha-1) is “increased fresh weight at all treatment levels compared to the sensitive plants”. In series [2], the “translocation of glyphosate away from treated tissues, glyphosate-resistant plants” value is “did not translocate glyphosate” and the “translocation of glyphosate away from treated tissues, glyphosate-sensitive plants” value is “glyphosate-sensitive plants did”. For the same compound, in series [3], the “time to rapid necrosis in mature leaves, glyphosate-resistant plants” value was ≤ 12 h. Moreover, the “time to rapid cell death, glyphosate-resistant plants” value in series [4] was ≤ 16 h. In series [4] (within 16 hours), the “cell death, glyphosate-sensitive plants” value is “limited cell death”. Besides, the “EPSPS sensitivity to glyphosate challenge, glyphosate-resistant vs glyphosate-sensitive plants” value with EPSPS is on record as “no difference”. Also, in series [5], the “H2O2 production, glyphosate sensitive leaves” value is “no H2O2 production” and the “time to significant H2O2 accumulation, mature leaves of glyphosate-resistant plants” value is ≤ 2 h. Also, in series [6], the “absorbed glyphosate translocated, glyphosate resistant plants” value amounted to 28% and the “absorbed glyphosate translocated, glyphosate-sensitive plants” value is recorded as 54%.
